In this assay the target is Alpha-synuclein (Homo sapiens, UniProt P37840). The assay is described as follows: biochemical.

The structures appear in SMILES notation.

For one molecule, IC50 and Ki results are on record in ChEMBL document CHEMBL2062425, “Synthesis and in vitro evaluation of α-synuclein ligands” (Bioorg Med Chem, 2012).

Regarding `c1ccc2c(c1)Nc1ccccc1S2` [PHENOTHIAZINE], it took 26 µM to reach half-maximal inhibition (IC50) and the Ki (usually the equilibrium dissociation constant of an inhibitor or competing ligand from its target) is over 500 nM.
